The values that follow come from the supplement of paper PMC10011410.

± gives the standard deviation of the averaged measurements.

The test system of the first assay is U-2 OS. Briefly: cell painting activity score (Mahalanobis distance from DMSO wells); higher = stronger morphological phenotype. To be noted: 5 µM; 24 h. In a few lines: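 In this cell painting assay, roughly 1,500 U-2 OS cells per well in 384-well plates were pin-tool treated at 37 °C for 24 h, typically at six 2-fold steps from 20 μM down to 625 nM. Cells were stained with MitoTracker, concanavalin A, phalloidin, wheat germ agglutinin, Hoechst and SYTO 14, imaged on an Opera Phenix, and analysed in CellProfiler with normalization to same-plate DMSO cells. Reported values are means of four replicate plates, with the activity score defined as the Mahalanobis distance from DMSO wells and cell count defined relative to DMSO wells.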
For the molecule `C=CC(=O)Nc1cccc(Oc2nc(Nc3ccc(N4CCN(C)CC4)cc3OC)ncc2Cl)c1`, the “cell painting activity score” value was determined as 9.73.
On the same count and under the same terms, under `Cn1nnnc1SC1=CS(=O)(=O)c2ccccc21` stands 21.3; under `CCC(=O)N1CCN(c2ccc(-n3c(=O)ccc4cnc5ccc(-c6cnc7ccccc7c6)cc5c43)cc2C(F)(F)F)CC1`, 13.4; under `O=C1CC(Nc2ccccc2)C(=O)N1Cc1ccccc1` (stereo not drawn), 4.03.
On the same count and under the same terms, the result for `C[C@@H]1C[C@H]2O[C@@H]2/C=C\C=C\C(=O)Cc2c(Cl)c(O)cc(O)c2C(=O)O1` reads 16.2 ± 1.9; that for `C=CC(=O)Nc1cc2c(Nc3ccc(F)c(Cl)c3)ncnc2cc1OCCCN1CCOCC1`, 25.4.
Same read-out and setting: the result for `O=C1/C(=C/c2ccc(O)c(Br)c2)CCC/C1=C\c1ccc(O)c(Br)c1` reads 8.32; that for `CNC(=O)Nc1ccc2c(c1)CC[C@@]21OC(=O)N(CC(=O)N(Cc2ccc(F)cc2)[C@@H](C)C(F)(F)F)C1=O`, 8.54.
For the molecule `O=C(O[C@@H]1Cc2c(O)cc(O)cc2O[C@@H]1c1cc(O)c(O)c(O)c1)c1cc(O)c(O)c(O)c1`, the “cell painting activity score” value worked out at 4.82.
Same read-out and setting: the result for `O=S1(=O)C=C(Sc2nn(-c3ccccc3)c(=S)s2)c2ccccc21` reads 17.8; that for `C=CC(=O)Nc1ccc(CN2C(=O)N(c3cc(OC)cc(OC)c3)Cc3cnc(Nc4ccc(N5CCN(C)CC5)cc4)nc32)cc1`, 10.2.
The same measure, in the same setting: the result for `CCCCCCCCCCCCCCCc1cccc(O)c1C(=O)O` reads 3.63; that for `Cl.Cl.O=C(O)Cn1nnc(-c2ccc(CN(CCCCOc3ccc(CN4CCCC4)cc3)CCc3ccccc3)cc2)n1`, 6.29; that for `COc1cc2ncnc(Nc3ccc(F)c(Cl)c3)c2cc1NC(=O)/C=C/CN1CCCCC1`, 13.9.
On the same count and under the same terms, the result for `Cc1cc(-c2ccccc2)cc(C(=O)NNS(=O)(=O)c2ccccc2)c1F` reads 6.92; that for `Cn1c(=O)n(-c2ccc(C(C)(C)C#N)cc2)c2c3cc(-c4cnc5ccccc5c4)ccc3ncc21`, 12.8; that for `CCCCCC[C@H]1C(=O)O[C@H](C)[C@H](NC(=O)c2cccc(NC=O)c2O)C(=O)O[C@@H](C)[C@@H]1OC(=O)CC(C)C`, 12.9.
On to `COC(=O)[C@]1(C)CC[C@]2(C)CC[C@]3(C)C4=CC=C5C(=CC(=O)C(O)=C5C)[C@]4(C)CC[C@@]3(C)[C@@H]2C1`, for which the “cell painting activity score” value came out at 33.4.

Staying with this assay, now noted: 10 µM; 24 h.
Regarding `O=C(Nc1nc(-c2ccccc2)ns1)c1cccs1`, the “cell painting activity score” value is 3.58.
Same read-out and setting: the result for `Cc1cc2c(C(C)C)c(O)c(O)c(C=O)c2c(O)c1-c1c(C)cc2c(C(C)C)c(O)c(O)c(C=O)c2c1O` reads 15.5; that for `C=CC(=O)Nc1cc(Nc2nccc(-c3cn(C)c4ccccc34)n2)c(OC)cc1N(C)CCN(C)C`, 13.8; that for `O=S1(=O)C=Cc2ccccc21`, 13.2.
Still for that read-out and setting: under `CC(=O)c1c(O)c(C)c(O)c(Cc2c(O)c3c(c(C(=O)C=Cc4ccccc4)c2O)OC(C)(C)C=C3)c1O` stands 6.83; under `CC1(C)CC[C@]2(C(=O)n3ccnc3)CC[C@]3(C)[C@H](C(=O)C=C4[C@@]5(C)C=C(C#N)C(=O)C(C)(C)[C@@H]5CC[C@]43C)[C@@H]2C1`, 32.
For `COC[C@H]1OC(=O)c2coc3c2[C@@]1(C)C1=C(C3=O)[C@@H]2CCC(=O)[C@@]2(C)C[C@H]1OC(C)=O`, the “cell painting activity score” value was determined as 10.4 ± 0.73.
Regarding `c1ccc(Nc2nc(-c3ccccc3)ns2)cc1`, the “cell painting activity score” value worked out at 9.5.
The same measure, in the same setting: under `C=CC(=O)Nc1cccc(Oc2nc(Nc3ccc(N4CCN(C)CC4)cc3OC)ncc2Cl)c1` stands 12.1; under `Cn1nnnc1SC1=CS(=O)(=O)c2ccccc21`, 13.8.
With `CCC(=O)N1CCN(c2ccc(-n3c(=O)ccc4cnc5ccc(-c6cnc7ccccc7c6)cc5c43)cc2C(F)(F)F)CC1`, the “cell painting activity score” value was determined as 13.2.
The same measure, in the same setting: the result for `O=C1CC(Nc2ccccc2)C(=O)N1Cc1ccccc1` (stereo not drawn) reads 4.46; that for `C[C@@H]1C[C@H]2O[C@@H]2/C=C\C=C\C(=O)Cc2c(Cl)c(O)cc(O)c2C(=O)O1`, 16.1 ± 1.1; that for `C=CC(=O)Nc1cc2c(Nc3ccc(F)c(Cl)c3)ncnc2cc1OCCCN1CCOCC1`, 25.3.
On the same count and under the same terms, under `O=C1/C(=C/c2ccc(O)c(Br)c2)CCC/C1=C\c1ccc(O)c(Br)c1` stands 9.31; under `CNC(=O)Nc1ccc2c(c1)CC[C@@]21OC(=O)N(CC(=O)N(Cc2ccc(F)cc2)[C@@H](C)C(F)(F)F)C1=O`, 9.44.
On the same count and under the same terms, under `O=C(O[C@@H]1Cc2c(O)cc(O)cc2O[C@@H]1c1cc(O)c(O)c(O)c1)c1cc(O)c(O)c(O)c1` stands 5.68; under `O=S1(=O)C=C(Sc2nn(-c3ccccc3)c(=S)s2)c2ccccc21`, 20.4; under `C=CC(=O)Nc1ccc(CN2C(=O)N(c3cc(OC)cc(OC)c3)Cc3cnc(Nc4ccc(N5CCN(C)CC5)cc4)nc32)cc1`, 12.1.
For `CCCCCCCCCCCCCCCc1cccc(O)c1C(=O)O`, the “cell painting activity score” value stood at 4.51.
On to `Cl.Cl.O=C(O)Cn1nnc(-c2ccc(CN(CCCCOc3ccc(CN4CCCC4)cc3)CCc3ccccc3)cc2)n1`, for which the “cell painting activity score” value stood at 6.41.
The same measure, in the same setting: the result for `COc1cc2ncnc(Nc3ccc(F)c(Cl)c3)c2cc1NC(=O)/C=C/CN1CCCCC1` reads 18.6; that for `Cc1cc(-c2ccccc2)cc(C(=O)NNS(=O)(=O)c2ccccc2)c1F`, 8.27; that for `Cn1c(=O)n(-c2ccc(C(C)(C)C#N)cc2)c2c3cc(-c4cnc5ccccc5c4)ccc3ncc21`, 12.6.
Turning to `CCCCCC[C@H]1C(=O)O[C@H](C)[C@H](NC(=O)c2cccc(NC=O)c2O)C(=O)O[C@@H](C)[C@@H]1OC(=O)CC(C)C`, the “cell painting activity score” value was found to be 12.8.
